Reference: ChEMBL document CHEMBL1255194, “A stereo-controlled synthesis of 2,4-dimethyl-4-hydroxy-16-phenylhexadecanoic acid 1,4-lactone and its PPAR activities” (Bioorg Med Chem Lett, 2010)

Legend:
[1] = target: T1, Peroxisome proliferator-activated receptor alpha (Mus musculus, UniProt P23204); test: Transactivation of mouse PPARalpha expressed in CV1 cells; assay type: cell-based, CV-1
T1 sequence (P23204 whole entry): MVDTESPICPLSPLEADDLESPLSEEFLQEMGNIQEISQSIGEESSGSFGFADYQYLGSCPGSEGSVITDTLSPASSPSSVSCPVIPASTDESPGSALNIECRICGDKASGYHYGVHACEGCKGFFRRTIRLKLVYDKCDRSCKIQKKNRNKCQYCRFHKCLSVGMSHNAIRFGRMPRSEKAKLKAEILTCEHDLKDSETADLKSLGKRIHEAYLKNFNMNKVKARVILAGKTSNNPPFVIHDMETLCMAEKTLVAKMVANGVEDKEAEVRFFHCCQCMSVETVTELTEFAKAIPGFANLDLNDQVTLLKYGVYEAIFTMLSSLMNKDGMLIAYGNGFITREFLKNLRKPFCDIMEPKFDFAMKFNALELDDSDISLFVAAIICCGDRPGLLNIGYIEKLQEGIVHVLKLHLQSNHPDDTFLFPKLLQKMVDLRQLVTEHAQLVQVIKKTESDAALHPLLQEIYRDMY

[2] = target: T2, Peroxisome proliferator-activated receptor delta (Mus musculus, UniProt P35396); test: Transactivation of mouse PPARdelta expressed in CV1 cells; assay type: cell-based, CV-1
T2 sequence (P35396 whole entry): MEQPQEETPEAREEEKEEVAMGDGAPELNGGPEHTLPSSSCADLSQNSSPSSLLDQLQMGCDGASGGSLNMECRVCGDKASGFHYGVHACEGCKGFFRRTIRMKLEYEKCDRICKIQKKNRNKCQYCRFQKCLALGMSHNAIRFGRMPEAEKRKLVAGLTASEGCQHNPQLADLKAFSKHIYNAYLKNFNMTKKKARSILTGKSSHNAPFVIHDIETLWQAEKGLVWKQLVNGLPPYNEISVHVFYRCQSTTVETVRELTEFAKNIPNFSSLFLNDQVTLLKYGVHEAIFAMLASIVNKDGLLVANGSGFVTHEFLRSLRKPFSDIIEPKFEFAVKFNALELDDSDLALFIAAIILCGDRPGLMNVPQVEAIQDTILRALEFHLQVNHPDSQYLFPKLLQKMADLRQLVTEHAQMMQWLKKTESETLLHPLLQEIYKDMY

[3] = target: T3, Peroxisome proliferator-activated receptor gamma (Mus musculus, UniProt P37238); test: Transactivation of mouse PPARgamma expressed in CV1 cells at 100 uM; assay type: cell-based; details: cv-1
T3 sequence (P37238 whole entry): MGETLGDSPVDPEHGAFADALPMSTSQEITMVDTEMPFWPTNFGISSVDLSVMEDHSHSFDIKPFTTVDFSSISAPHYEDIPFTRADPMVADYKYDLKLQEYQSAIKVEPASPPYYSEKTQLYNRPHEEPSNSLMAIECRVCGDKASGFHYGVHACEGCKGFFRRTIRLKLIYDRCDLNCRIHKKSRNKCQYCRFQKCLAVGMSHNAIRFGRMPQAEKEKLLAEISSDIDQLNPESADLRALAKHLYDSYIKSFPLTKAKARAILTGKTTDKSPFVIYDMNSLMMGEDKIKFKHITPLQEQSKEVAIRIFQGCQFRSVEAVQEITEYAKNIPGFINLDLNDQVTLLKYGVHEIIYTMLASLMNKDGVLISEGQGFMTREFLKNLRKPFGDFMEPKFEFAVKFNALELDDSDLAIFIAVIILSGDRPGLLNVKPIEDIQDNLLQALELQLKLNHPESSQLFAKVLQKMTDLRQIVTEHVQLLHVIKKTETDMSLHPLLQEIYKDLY

Row | Structure (SMILES) | EC50 [1] [µM] | EC50 [2] [µM] | EC50 [3] | EC50 ([2]; cv-1) [µM]
1 | C[C@@H]1C[C@@](C)(CCCCCCCCCCCCc2ccccc2)OC1=O | 12 | 9 | Not Active | –
2 | C[C@H]1C[C@](C)(CCCCCCCCCCCCc2ccccc2)OC1=O (stereo in doubt) | 13 | 16 | Not Active | –
3 | C[C@H]1C[C@@](C)(CCCCCCCCCCCCc2ccccc2)OC1=O (stereo in doubt) | 24 | 22 | Not Active | –
4 | C[C@@H]1C[C@](C)(CCCCCCCCCCCCc2ccccc2)OC1=O | 39 | 34 | Not Active | –
5 | C[C@H]1C[C@@](C)(CCCCCCCCCCCCc2ccccc2)OC1=O (stereo in doubt; 1a) | 20 | – | – | 22
6 | C[C@H]1C[C@](C)(CCCCCCCCCCCCc2ccccc2)OC1=O (stereo in doubt; (+)-1c) | 25 | 24 | – | –
